Test results taken from patent publication US20240124444A1 (Celgene Corporation, priority 2020, published 2024).

System: C. parvum strain UGA1
Assay: C. parvum growth inhibition assay (Nluc luminescence in HCT-8 cells)
Format: cell-based, Cryptosporidium parvum
Conditions: Cryptosporidium parvum; for EC50: HCT-8, 48 h, C. parvum growth inhibition in HCT-8 cells, 48 hours, 6 concentrations 10-0.04 μM; for inhibition at 1 µM / inhibition at 10 µM: HCT-8; for inhibition at 1 µM: single point inhibition @ 1 uM, read-out: % inh @ 1 uM C. parvum; for inhibition at 10 µM: single point inhibition @ 10 uM, read-out: % inh @ 10 uM C. parvum
Procedure: C. parvum GROWTH INHIBITION ASSAYS
C. parvum growth inhibition was performed as described in Hulverson M A, Vinayak S, Choi R, Schaefer D A, Castellanos-Gonzalez A, Vidadala R S R, Brooks C F, Herbert G T, Betzer D P, Whitman G R, Sparks H N, Arnold S L M, Rivas K L, Barrett L K, White A C Jr, Maly D J, Riggs M W, Striepen B, Van Voorhis W C, Ojo K K. Bumped-Kinase Inhibitors for Cryptosporidiosis Therapy. J Infect Dis. 2017 Apr. 15; 215(8):1275-1284.
C. parvum strain UGA1 […] (ATCC, Manassas, VA) were prepared as described below. HCT-8 cells were inoculated onto 96-well plates were grown for 48 hours to 90%-100% confluence. C. parvum oocysts were then incubated for 10 minutes in 10% bleach at room temperature and washed with Dulbecco's phosphate-buffered saline. One thousand oocysts per well were applied to plates with Roswell Park Memorial Institute 1640 (RPMI) medium supplemented with 10% horse serum and 1% penicillin/streptomycin. Compounds of Formula (I), Formula (II), and Formula (III) were added to the plates at different concentrations and the plates were incubated for 48 hours. Following the incubation, the monolayers were lysed for 1 hour before a luciferase reagent was added, and relative luminescence units were determined.
For certain compounds of Formula I, Formula II, and Formula III, EC50 values were calculated using curves calculated from Prism after analysis of C. parvum growth inhibition at 6 different concentrations: 10, 3.33, 1.11, 0.37, 0.12, and 0.04 μM. […] For certain compounds of Formula I, Formula II, and Formula III, single point inhibition values of 0-33% (activity level D), between 33% and 66% (activity level E), and between 67% and 100% (activity level F) are also shown in Table 1 below.

SMILES	EC50 [µM]	inhibition at 1 µM [%]	inhibition at 10 µM [%]
Cn1c(-c2ccnc(NCC(F)(F)F)n2)cc2cnc(N[C@H]3CCCOC3)cc21 (racemic) [Example 36, 1-Methyl-N-[rac-(3s)-tetrahydropyran-3-yl]-2-[2-(2,2,2-trifluoroethylamino)pyrimidin-4-yl]pyrrolo[3,2-c]pyridin-6-amine]	> 1	33 to 66	67 to 100
Cc1cc(-c2cc3cnc(NC4CCOC4)cc3[nH]2)ccn1 (stereo in doubt) [Example 52, (S)-2-(2-methylpyridin-4-yl)-N-(tetrahydrofuran-3-yl)-1H-pyrrolo[3,2-c]pyridin-6-amine]	> 1		
Cc1nn(C)cc1C(=O)Nc1cc2[nH]c(-c3ccnc(OC(C)C(F)(F)F)n3)cc2cn1 (stereo in doubt) [Example 136, (S)-1,3-dimethyl-N-(2-(2-(1,1,1-trifluoropropan-2-yloxy)pyrimidin-4-yl)-1H-pyrrolo[3,2-c]pyridin-6-yl)-1H-pyraozle-4-carboxamide]		0 to 33	67 to 100
Cn1c(-c2ccnc(NCC(F)(F)F)n2)cc2cnc(NC(=O)c3cnn(C4CCOC4)c3)cc21 (stereo in doubt) [Example 142, (R)-N-(1-methyl-2-(2-(2,2,2-trifluoroethylamino)pyrimidin-4-yl)-1H-pyrrolo[3,2-c]pyridin-6-yl)-1-(tetrahydrofuran-3-yl)-1H-pyrazole-4-carboxamide]		67 to 100	67 to 100
Cc1cc(-c2cc3cnc(NC(=O)OC4CCOC4)cc3[nH]2)ccn1 (stereo in doubt) [Example 152, (R)-tetrahydrofuran-3-yl 2-(2-methylpyridin-4-yl)-1H-pyrrolo[3,2-c]pyridin-6-ylcarbamate]		0 to 33	67 to 100
CCOc1nccc(-c2cc3cnc(NC(=O)[C@@H]4C[C@H]4C)cc3[nH]2)n1 (stereo in doubt) [Example 153, (1R,2R)-N-(2-(2-ethoxypyrimidin-4-yl)-1H-pyrrolo[3,2-c]pyridin-6-yl)-2-methylcyclopropanecarboxamide]		0 to 33	67 to 100
COc1nccc(-c2cc3cnc(NC(=O)c4cnn(CC5CCOC5)c4)cc3[nH]2)n1 (stereo in doubt) [Example 156, (S)-N-(2-(2-methoxypyrimidin-4-yl)-1H-pyrrolo[3,2-c]pyridin-6-yl)-1-((tetrahydrofuran-3-yl)methyl)-1H-pyrazole-4-carboxamide]		0 to 33	67 to 100
O=C(Nc1cc2[nH]c(-c3ccnc(OCCCF)n3)cc2cn1)c1cnn(CC2CCCO2)c1 (stereo in doubt) [Example 171, (S)-N-(2-(2-(3-fluoropropoxy)pyrimidin-4-yl)-1H-pyrrolo[3,2-c]pyridin-6-yl)-1-((tetrahydrofuran-2-yl)methyl)-1H-pyrazole-4-carboxamide]		0 to 33	67 to 100
COc1nccc(-c2cc3cnc(NC(=O)c4cnn(CC5CCOC5)c4C)cc3[nH]2)n1 (stereo in doubt) [Example 179, (S)-N-(2-(2-methoxypyrimidin-4-yl)-1H-pyrrolo[3,2-c]pyridin-6-yl)-5-methyl-1-((tetrahydrofuran-3-yl)methyl)-1H-pyrazole-4-carboxamide]		0 to 33	67 to 100
Cc1cc(-c2cc3cnc(NC(=O)C4CCCO4)cc3[nH]2)ccn1 (stereo in doubt) [Example 182, (S)-N-(2-(2-methylpyridin-4-yl)-1H-pyrrolo[3,2-c]pyridin-6-yl)tetrahydrofuran-2-carboxamide]		0 to 33	67 to 100
COc1nccc(-c2cc3cnc(NC(=O)c4cnn(CC5CCOC5)c4)cc3[nH]2)n1 (stereo in doubt) [Example 184, (R)-N-(2-(2-methoxypyrimidin-4-yl)-1H-pyrrolo[3,2-c]pyridin-6-yl)-1-((tetrahydrofuran-3-yl)methyl)-1H-pyrazole-4-carboxamide]		0 to 33	67 to 100
